Where a name gives a salt, the structure may show the parent alone.
Assays:
sciatic nerve = experiment: Local injection proximal to the sciatic nerve, rat hot plate assay / dose-response; format: in vivo; settings: rats, local injection of 25 mg/kg (8 mg/nerve)
Sprague-Dawley rats = experiment: Single dose toxicity (acute lethality) in rats, intramuscular; format: in vivo; settings: for Mortality: I.M.
Method: Sprague-Dawley rats from Charles River, 6-8 weeks of age (body weight about […] for females and about 200-290 grams for males) were used for these studies.
Male and female rats were dosed intramuscularly in the hind limb with bupivacaine base (the form used in the microspheres), aqueous bupivacaine HCl, or LAB. The animals were examined for pharmacotoxic signs (including tremors and convulsions, and death).

[1] = in vivo; cited from earlier work

CCCCN1CCCCC1C(=O)Nc1c(C)cccc1C (stereo not drawn) [Bupivacaine HCl, bupivacaine HCl]
deaths of the animals (sciatic nerve): about 10% | Mortality (Sprague-Dawley rats; 5 mg/kg): 0/4 | Mortality (Sprague-Dawley rats; 10 mg/kg): 0/4 | Mortality (Sprague-Dawley rats; 25 mg/kg): 0/4 | Mortality (Sprague-Dawley rats; 50 mg/kg, HCl): 4/4 | Mortality (Sprague-Dawley rats; 100 mg/kg, HCl): 4/4 | lowest lethal dose (Sprague-Dawley rats; intramuscular dosing): 10.6 mg/kg | paralysis of the hindlimb (local motor anesthesia) (Sprague-Dawley rats; intramuscular dosing in the hind limb): More transient paralysis

CCCCN1CCCCC1C(=O)Nc1c(C)cccc1C (stereo not drawn) [Bupivacaine free base, bupivacaine base]
Mortality (Sprague-Dawley rats; 50 mg/kg): 1/4 | Mortality (Sprague-Dawley rats; 100 mg/kg): 1/4 | Mortality (Sprague-Dawley rats; 150 mg/kg): 2/4

CCCCN1CCCCC1C(=O)Nc1c(C)cccc1C (stereo not drawn) [bupivacaine]
plasma concentrations associated with toxicity [1]: > 1600 ng/mL
